The values that follow come from article doi:10.1101/2025.11.20.689572v1 (biorxiv, 2025).

pKi: −log10 of the molar value. Where two headings read alike, the source gives them in different places.

One test concerns the target T1, KOR (Homo sapiens, UniProt P41145).
T1 construct: gene OPRK1; full-length receptor; HEK293 cell membranes
The test can be described thus: competitive radioligand binding, HEK293 membranes. The source says:
competitive radioligand binding, HEK293 membranes on KOR

Another test concerns the target T2, 5-HT1D (Homo sapiens, UniProt P28221).
T2 construct: gene HTR1D; full-length receptor; HEK293 with TRUPATH sensors (function)
The test is described as follows: TRUPATH BRET2 G protein dissociation, HEK293. It counts as cell-based. The note with it: HBSS, […] HEPES pH […] °C; agonist mode.

For a further test, the target named is T3, H1 (Homo sapiens, UniProt P35367).
T3 construct: gene HRH1; full-length receptor; HEK293 cell membranes
The test is described as follows: competitive radioligand binding, HEK293 membranes. From the text: competitive radioligand binding, HEK293 membranes on H1

A further test has as its target T4, M1 (Homo sapiens, UniProt P11229).
T4 construct: gene CHRM1; full-length receptor; HEK293 with TRUPATH sensors (function)
T4 sequence (P11229 1-460): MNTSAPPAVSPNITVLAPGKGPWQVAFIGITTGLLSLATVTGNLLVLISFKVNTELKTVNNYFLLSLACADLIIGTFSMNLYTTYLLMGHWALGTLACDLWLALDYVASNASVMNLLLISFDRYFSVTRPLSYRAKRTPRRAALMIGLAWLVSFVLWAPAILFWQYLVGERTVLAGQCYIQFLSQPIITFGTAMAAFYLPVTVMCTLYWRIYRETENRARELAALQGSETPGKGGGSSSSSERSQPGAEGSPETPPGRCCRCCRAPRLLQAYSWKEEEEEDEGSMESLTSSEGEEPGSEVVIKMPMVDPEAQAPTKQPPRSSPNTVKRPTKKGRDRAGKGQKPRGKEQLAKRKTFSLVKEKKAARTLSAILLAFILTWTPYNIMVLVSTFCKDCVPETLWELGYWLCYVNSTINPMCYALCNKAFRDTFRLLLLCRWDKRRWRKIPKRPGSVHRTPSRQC
The test can be described thus: TRUPATH BRET2 G protein dissociation, HEK293. It counts as cell-based. The note with it: HBSS, […] HEPES pH […] °C; agonist mode.

For a further test, the target named is T5, 5-HT1B (Homo sapiens, UniProt P28222).
T5 construct: gene HTR1B; full-length receptor; HEK293 cell membranes
The test can be described thus: competitive radioligand binding, HEK293 membranes. From the text:
competitive radioligand binding, HEK293 membranes on 5-HT1B

The target in the next test is T6, 5-HT2A (Homo sapiens, UniProt P28223).
T6 construct: gene HTR2A; full-length receptor; HEK293 cell membranes
The test can be described thus: competitive radioligand binding, HEK293 membranes. The source says: competitive radioligand binding, HEK293 membranes on 5-HT2A

In a further test the target is T7, M3 (Homo sapiens, UniProt P20309).
T7 construct: gene CHRM3; full-length receptor; HEK293 with TRUPATH sensors (function)
The test is described as follows: TRUPATH BRET2 G protein dissociation, HEK293. It counts as cell-based. The note with it: HBSS, […] HEPES pH […] °C; agonist mode.

In another test the target is T8, 5-HT2B (Homo sapiens, UniProt P41595).
T8 construct: gene HTR2B; full-length receptor; HEK293 cell membranes
The test is described as follows: competitive radioligand binding, HEK293 membranes. The source says:
competitive radioligand binding, HEK293 membranes on 5-HT2B

In the next test the target is T9, CHRM5 (Homo sapiens, UniProt P08912).
T9 sequence (P08912 1-532): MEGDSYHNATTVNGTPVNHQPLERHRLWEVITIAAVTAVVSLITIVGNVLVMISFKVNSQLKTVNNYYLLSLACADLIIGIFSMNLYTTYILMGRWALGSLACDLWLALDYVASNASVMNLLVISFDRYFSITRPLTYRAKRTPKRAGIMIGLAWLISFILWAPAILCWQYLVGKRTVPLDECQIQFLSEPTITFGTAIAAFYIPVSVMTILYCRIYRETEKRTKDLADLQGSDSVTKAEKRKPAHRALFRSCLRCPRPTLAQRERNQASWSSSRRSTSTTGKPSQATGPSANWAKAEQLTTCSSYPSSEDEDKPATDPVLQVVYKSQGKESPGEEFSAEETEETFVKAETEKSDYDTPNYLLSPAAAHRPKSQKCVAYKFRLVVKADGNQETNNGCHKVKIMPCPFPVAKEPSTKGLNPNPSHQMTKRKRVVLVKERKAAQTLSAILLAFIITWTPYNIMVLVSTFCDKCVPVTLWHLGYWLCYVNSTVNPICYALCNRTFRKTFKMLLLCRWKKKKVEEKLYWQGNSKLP
The test can be described thus: cell-based. Further details: species or system HEK293; BRET1 beta-arrestin2 recruitment, receptor-RLuc8 and mVenus-beta-arrestin2 with GRK2. The following applies: Assay=barr2, agonist mode, % of control agonist. From the text: (§1) BRET1 assays followed prior methods.

The target in a further test is T10, CHRM1 (Homo sapiens, UniProt P11229).
T10 sequence (P11229 1-460): T4 sequence (P11229 1-460)
The test can be described thus: cell-based. On the set-up: species or system HEK293; BRET1 beta-arrestin2 recruitment, receptor-RLuc8 and mVenus-beta-arrestin2 with GRK2. The following applies: Assay=barr2, agonist mode, % of control agonist.
Description: as §1

The next test concerns the target T11, CHRM4 (Homo sapiens, UniProt P08173).
T11 sequence (P08173 1-479): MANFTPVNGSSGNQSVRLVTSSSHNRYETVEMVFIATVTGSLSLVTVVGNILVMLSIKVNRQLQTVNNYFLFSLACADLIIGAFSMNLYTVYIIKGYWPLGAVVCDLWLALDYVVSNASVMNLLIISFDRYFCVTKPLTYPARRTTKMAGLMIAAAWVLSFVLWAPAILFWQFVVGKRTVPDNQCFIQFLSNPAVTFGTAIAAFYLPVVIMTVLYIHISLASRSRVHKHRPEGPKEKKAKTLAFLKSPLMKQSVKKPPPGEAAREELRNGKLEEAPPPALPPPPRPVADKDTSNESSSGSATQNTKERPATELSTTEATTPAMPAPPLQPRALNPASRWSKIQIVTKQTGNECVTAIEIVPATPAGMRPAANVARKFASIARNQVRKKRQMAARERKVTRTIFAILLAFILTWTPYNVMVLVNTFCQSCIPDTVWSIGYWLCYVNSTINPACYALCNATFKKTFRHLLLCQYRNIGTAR
The test is described as follows: cell-based. The note with it: Assay=barr2, agonist mode, % of control agonist. On the set-up: species or system HEK293; BRET1 beta-arrestin2 recruitment, receptor-RLuc8 and mVenus-beta-arrestin2 with GRK2.
Description: as §1

In the next test the target is CHRM3 (Homo sapiens, UniProt P20309). The test is described as follows: cell-based. On the set-up: species or system HEK293; BRET1 beta-arrestin2 recruitment, receptor-RLuc8 and mVenus-beta-arrestin2 with GRK2. The note with it: Assay=barr2, agonist mode, % of control agonist.
Description: as §1

Setting [1] is: HEK293, read-out: N-Desmethyl Xanomeline.

For `CCCCCCOc1nsnc1C1=CCCNC1` [N-desmethylxanomeline], the pKi at KOR was 5.99; on H1 it was 6.14; on 5-HT1B, 6.75; at 5-HT2A, 6.27; on 5-HT2B, 7.80. The EC50 result was “full or partial agonists at 5-HT1D and 5-HT1A in a transducer-dependent fashion” at 5-HT1D; “differential activation of M1-M5 muscarinic receptor transducers” at M1; “differential activation of M1-M5 muscarinic receptor transducers” at M3. Besides, the Emax at CHRM5 (setting [1]) amounted to 16.9%; on CHRM1 (setting [1]) it was 71.3%; on CHRM4 (setting [1]), 20.5%; on CHRM3 (setting [1]), 32.8%.
Take `CCCCCCOc1nsnc1C1=CCCN(C)C1` [Xanomeline]: the pKi was 5.75 at KOR; 7.00 on H1; 6.14 on 5-HT1B; 6.60 on 5-HT2A; 7.40 on 5-HT2B. For the same molecule, the EC50 entry is “full or partial agonists at 5-HT1D and 5-HT1A in a transducer-dependent fashion” at 5-HT1D; “xanomeline being more potent and efficacious than carbachol at M1 and M4 muscarinic receptors” at M1; “differential activation of M1-M5 muscarinic receptor transducers” at M3. Further, the Emax at CHRM5 (HEK293, read-out: Xanomeline) was found to be 27.2%; on CHRM1 (HEK293, read-out: Xanomeline), 73.2%; on CHRM4 (HEK293, read-out: Xanomeline) it was 29.1%; at CHRM3 (HEK293, read-out: Xanomeline), 21.7%.
